Data published in patent US4540700A, “Treatment of diabetic complications with certain spiro-imidazolidine-diones” (Alcon Laboratories, Inc., priority 1984, dated 1985).
Values joined by “and” are separate entries in the source; they are usually repeats but may differ in a detail not shown here. Identical values can stand only once.

Test system: cataract formation in galactocemic rats
Assay: in vivo dose response by intubation (per oral) in galactocemic rats, cataract (vacuole) formation
Design: species or system Charles River CD (Sprague-Dawley derived) male rats
Experimental: B. In vivo dose response studies were conducted to test the in vivo activity of the following compounds by intubation (per oral) in galactocemic rats on a 30% galactose diet previously described:
Stock suspensions of the test compounds and all dilutions of the compound were formulated with 0.03% by weight Tween 80.
Healthy, Charles River CD (outbred albino, Sprague-Dawley derived) male rats, aged 20-30 days, without observable ocular defects and ranging in weight from 35-45 grams, were acclimated to experimental conditions (in quarantine) for two days prior to beginning the study.
Rats were individually assigned to one of twenty-three groups according to a random number schedule. Two rats, belonging to the same drug-diet treatment group, were housed per cage. Treatment and control groups consisted of six (6) rats each with no replacement in the event of death, and were designated as follows:
Lenses of all eyes were examined with a hand-held ophthalmoscope in the early stages of cataract development and a penlight for the stages, snowflake-like, snowflake, and nuclear cataract. Lens grading occurred every day for the first ten study days, and then every other day until study Day 14.
The relative potency determination was made at 7 drug levels over half log dose intervals. The response (percent cataracts formed and/or the time to cataract formation) was plotted against mg/kg and/or moles/kg.
The study was directed to the suppression and/or elimination of the initial stages of cataract development characterized by vacuoles or snowflake-likeopacities only. It was assumed therefore that suppression and/or elimination of vacuoles or lens opacification by the test drugs affects the transport, absorption and/or metabolism of galactose in such a manner as to prevent subsequent osmotic disturbances normally leading to tissue degeneration and advanced cataract. Advanced cataract defined as stages 2-4 of the Sipple classification was assumed to be of secondary importance to the etiology of cataract inhibition.
In the event where cataract stage other than vacuole formed, such as snowflake-like opacities, this cataract was counted similarly as vacuole in percent cataract formation.
This study yielded this expected effect in the control groups.
All animals were fed Purina Laboratory Chow and water, ad libitum, for the two day acclimation period. All drugs were dosed orally by intubation using an animal feeding needle (Popper and Sons), 18 or 20 gauge, attached to a 1 or 3 ml syringe. Once the dosing time schedule was established, the schedule was followed throughout the study to compensate for any diurnal variation.
The animals were kept on a twelve hour day/night cycle. The temperature and humidity were determined each day at the scheduled dosing time of 1:00 p.m.
The animals were weighed every other day and adjustments to dosage amounts to compensate for weight gain were made each day prior to the dose time. All food was routinely withheld from all animal groups for four hours (9:00 a.m.) prior to the drug dose and restored two hours (3:00 p.m.) post-dose. Otherwise sufficient amounts of chow or diet mixture were maintained in the food hopper to allow the animals to eat ad libitum. There were two days of drug dosage with the animals remaining on Purina Laboratory Chow (Days 1 and 2). The 30% galactose diet mixture was introduced to the animals two hours post-dose on Day 3 which constituted Day 1 of the study.
All eyes were examined with a hand-held ophthalmoscope and/or penlight at the times designated in the Experimental Design section.
It has been found in previous studies that dilation of the eye with a mydriactic (i.e. Mydriacyl) is not necessary for accurate grading, due to the semi-transparent nature of the rat iris. In the early stages (i.e., grades -, ±, and +) the lens was observed by reflecting the ophthalmoscope beam off the retina back through the lens and iris. Using this technique, vacuoles appear as dark, almost opaque patches. […]

SMILES: O=C1NC(=O)C2(CCOc3ccc(F)cc32)N1 (racemic) [Sarges Racemic, dl-spiro-(6-fluorochroman-4,4'-imidazolidine)-2',5'-dione, reference compound]
- Percent of Rat Eyes With at Least Vacuoles Formed (0.126 mg/kg p.o., Day 0): 0%
- Percent of Rat Eyes With at Least Vacuoles Formed (0.126 mg/kg p.o., Day 1): 0%
- Percent of Rat Eyes With at Least Vacuoles Formed (0.126 mg/kg p.o., Day 2): 0%
- Percent of Rat Eyes With at Least Vacuoles Formed (0.126 mg/kg p.o., Day 3): 0%
- Percent of Rat Eyes With at Least Vacuoles Formed (0.126 mg/kg p.o., Day 4): 0%
- Percent of Rat Eyes With at Least Vacuoles Formed (0.126 mg/kg p.o., Day 5): 0%
- Percent of Rat Eyes With at Least Vacuoles Formed (0.126 mg/kg p.o., Day 6): 33%
- Percent of Rat Eyes With at Least Vacuoles Formed (0.126 mg/kg p.o., Day 7): 33%
- Percent of Rat Eyes With at Least Vacuoles Formed (0.126 mg/kg p.o., Day 8): 50%
- Percent of Rat Eyes With at Least Vacuoles Formed (0.126 mg/kg p.o., Day 9): 58%
- Percent of Rat Eyes With at Least Vacuoles Formed (0.126 mg/kg p.o., Day 10): 83%
- Percent of Rat Eyes With at Least Vacuoles Formed (0.126 mg/kg p.o., Day 12): 83%
- Percent of Rat Eyes With at Least Vacuoles Formed (0.126 mg/kg p.o., Day 14): 100%
- Percent of Rat Eyes With at Least Vacuoles Formed (0.4 mg/kg p.o., Day 0): 0%
- Percent of Rat Eyes With at Least Vacuoles Formed (0.4 mg/kg p.o., Day 1): 0%
- Percent of Rat Eyes With at Least Vacuoles Formed (0.4 mg/kg p.o., Day 2): 0%
- Percent of Rat Eyes With at Least Vacuoles Formed (0.4 mg/kg p.o., Day 3): 0%
- Percent of Rat Eyes With at Least Vacuoles Formed (0.4 mg/kg p.o., Day 4): 0%
- Percent of Rat Eyes With at Least Vacuoles Formed (0.4 mg/kg p.o., Day 5): 0%
- Percent of Rat Eyes With at Least Vacuoles Formed (0.4 mg/kg p.o., Day 6): 33%
- Percent of Rat Eyes With at Least Vacuoles Formed (0.4 mg/kg p.o., Day 7): 33%
- Percent of Rat Eyes With at Least Vacuoles Formed (0.4 mg/kg p.o., Day 8): 50%
- Percent of Rat Eyes With at Least Vacuoles Formed (0.4 mg/kg p.o., Day 9): 58%
- Percent of Rat Eyes With at Least Vacuoles Formed (0.4 mg/kg p.o., Day 10): 83%
- Percent of Rat Eyes With at Least Vacuoles Formed (0.4 mg/kg p.o., Day 12): 83%
- Percent of Rat Eyes With at Least Vacuoles Formed (0.4 mg/kg p.o., Day 14): 100%
- Percent of Rat Eyes With at Least Vacuoles Formed (1.26 mg/kg p.o., Day 0): 0%
- Percent of Rat Eyes With at Least Vacuoles Formed (1.26 mg/kg p.o., Day 1): 0%
- Percent of Rat Eyes With at Least Vacuoles Formed (1.26 mg/kg p.o., Day 2): 0%
- Percent of Rat Eyes With at Least Vacuoles Formed (1.26 mg/kg p.o., Day 3): 0%
- Percent of Rat Eyes With at Least Vacuoles Formed (1.26 mg/kg p.o., Day 4): 0%
- Percent of Rat Eyes With at Least Vacuoles Formed (1.26 mg/kg p.o., Day 5): 0%
- Percent of Rat Eyes With at Least Vacuoles Formed (1.26 mg/kg p.o., Day 6): 0%
- Percent of Rat Eyes With at Least Vacuoles Formed (1.26 mg/kg p.o., Day 7): 0%
- Percent of Rat Eyes With at Least Vacuoles Formed (1.26 mg/kg p.o., Day 8): 8%
- Percent of Rat Eyes With at Least Vacuoles Formed (1.26 mg/kg p.o., Day 9): 17%
- Percent of Rat Eyes With at Least Vacuoles Formed (1.26 mg/kg p.o., Day 10): 83%
- Percent of Rat Eyes With at Least Vacuoles Formed (1.26 mg/kg p.o., Day 12): 100%
- Percent of Rat Eyes With at Least Vacuoles Formed (1.26 mg/kg p.o., Day 14): 100%
- Percent of Rat Eyes With at Least Vacuoles Formed (4.0 mg/kg p.o., Day 0): 0%
- Percent of Rat Eyes With at Least Vacuoles Formed (4.0 mg/kg p.o., Day 1): 0%
- Percent of Rat Eyes With at Least Vacuoles Formed (4.0 mg/kg p.o., Day 2): 0%
- Percent of Rat Eyes With at Least Vacuoles Formed (4.0 mg/kg p.o., Day 3): 0%
- Percent of Rat Eyes With at Least Vacuoles Formed (4.0 mg/kg p.o., Day 4): 0%
- Percent of Rat Eyes With at Least Vacuoles Formed (4.0 mg/kg p.o., Day 5): 0%
- Percent of Rat Eyes With at Least Vacuoles Formed (4.0 mg/kg p.o., Day 6): 0%
- Percent of Rat Eyes With at Least Vacuoles Formed (4.0 mg/kg p.o., Day 7): 0%
- Percent of Rat Eyes With at Least Vacuoles Formed (4.0 mg/kg p.o., Day 8): 0%
- Percent of Rat Eyes With at Least Vacuoles Formed (4.0 mg/kg p.o., Day 9): 0%
- Percent of Rat Eyes With at Least Vacuoles Formed (4.0 mg/kg p.o., Day 10): 0%
- Percent of Rat Eyes With at Least Vacuoles Formed (4.0 mg/kg p.o., Day 12): 17% and 16.7%
- Percent of Rat Eyes With at Least Vacuoles Formed (4.0 mg/kg p.o., Day 14): 50%
- Percent of Rat Eyes With at Least Vacuoles Formed (12.6 mg/kg p.o., Day 0): 0%
- Percent of Rat Eyes With at Least Vacuoles Formed (12.6 mg/kg p.o., Day 1): 0%
- Percent of Rat Eyes With at Least Vacuoles Formed (12.6 mg/kg p.o., Day 2): 0%
- Percent of Rat Eyes With at Least Vacuoles Formed (12.6 mg/kg p.o., Day 3): 0%
- Percent of Rat Eyes With at Least Vacuoles Formed (12.6 mg/kg p.o., Day 4): 0%
- Percent of Rat Eyes With at Least Vacuoles Formed (12.6 mg/kg p.o., Day 5): 0%
- Percent of Rat Eyes With at Least Vacuoles Formed (12.6 mg/kg p.o., Day 6): 0%
- Percent of Rat Eyes With at Least Vacuoles Formed (12.6 mg/kg p.o., Day 7): 0%
- Percent of Rat Eyes With at Least Vacuoles Formed (12.6 mg/kg p.o., Day 8): 0%
- Percent of Rat Eyes With at Least Vacuoles Formed (12.6 mg/kg p.o., Day 9): 0%
- Percent of Rat Eyes With at Least Vacuoles Formed (12.6 mg/kg p.o., Day 10): 0%
- Percent of Rat Eyes With at Least Vacuoles Formed (12.6 mg/kg p.o., Day 12): 0%
- Percent of Rat Eyes With at Least Vacuoles Formed (12.6 mg/kg p.o., Day 14): 8% and 0.3%
- Percent of Rat Eyes With at Least Vacuoles Formed (40 mg/kg p.o., Day 0): 0%
- Percent of Rat Eyes With at Least Vacuoles Formed (40 mg/kg p.o., Day 1): 0%
- Percent of Rat Eyes With at Least Vacuoles Formed (40 mg/kg p.o., Day 2): 0%
- Percent of Rat Eyes With at Least Vacuoles Formed (40 mg/kg p.o., Day 3): 0%
- Percent of Rat Eyes With at Least Vacuoles Formed (40 mg/kg p.o., Day 4): 0%
- Percent of Rat Eyes With at Least Vacuoles Formed (40 mg/kg p.o., Day 5): 0%
- Percent of Rat Eyes With at Least Vacuoles Formed (40 mg/kg p.o., Day 6): 0%
- Percent of Rat Eyes With at Least Vacuoles Formed (40 mg/kg p.o., Day 7): 0%
- Percent of Rat Eyes With at Least Vacuoles Formed (40 mg/kg p.o., Day 8): 0%
- Percent of Rat Eyes With at Least Vacuoles Formed (40 mg/kg p.o., Day 9): 0%
- Percent of Rat Eyes With at Least Vacuoles Formed (40 mg/kg p.o., Day 10): 0%
- Percent of Rat Eyes With at Least Vacuoles Formed (40 mg/kg p.o., Day 12): 0%
- Percent of Rat Eyes With at Least Vacuoles Formed (40 mg/kg p.o., Day 14): 0%
